Like-named read-outs stand apart in the source and are kept apart here. Where no end group is shown, it is not given here.
Legend:
Assay type in all cases: cell-based
Conditions in all cases: 48 h
[1] = tested on: human non-small cell lung cancer cell line (NCI-H2444)
Description: (§1) CAKI2 cells were cultured and adjusted to cell count of about 5×10^3 cells per single well of 96-well plate. The amount of medium at this time was made to be 100 μL per well. Next, the 96-well plate was arranged in a CO2 incubator and incubated for about 1 day (21 hours to 24 hours) under conditions of 37° C. and 5% CO2. Subsequently, peptide-containing test media were respectively prepared for each concentration so that the concentration of each sample peptide targeted for evaluation was 12.5 μM and 25 μM followed by supplying to the wells in which the cells targeted for evaluation were cultured (namely, the wells following the above-mentioned incubation) so that the amount of media was 90 μL per well. The 96-well plate was then returned to CO2 incubator followed by incubating for 48 hours under conditions of 37° C. and 5% CO2. The number of wells (n) at each concentration in each peptide addition test group was set to 3. Thus, the values of the results indicated in the following table are the average values of the results respectively obtained for 3 test wells. Cell viability (%) was determined in the manner described below. Following completion of incubation for 48 hours as described above, the medium in each well was replaced with 100 μL of fresh medium not containing peptide followed by further adding a reagent for measuring cell proliferation in the form of “Cell Counting Kit-8” (Dojindo Laboratories) containing “water-soluble tetrazolium salt (WST-8)” as a coloring reagent at 10 μL per well. Subsequently, the 96-well plate was again returned to CO2 incubator and incubated for 1.5 hours to 2 hours under conditions of 37° C. and 5% CO2. Following completion of incubation, cell viability (%) was evaluated using a colorimetric method consisting of recovering the cell culture liquid containing the above-mentioned reagent together with measuring absorbance at wavelength of 450 nm based on reduction of tetrazolium salt (value corrected for absorbance at a wavelength of 650 nm: A450 to A650). More specifically, the cell viability (%) of each test cell line was calculated from the measured absorbance as a relative value based on cell viability of 100% for the measured value (measured absorbance) of the comparison test group that underwent incubation for 48 hours as described above in only medium not containing peptide. Antitumor activity was evaluated for Sample 2 in above-mentioned Test Example 1 targeted at multiple types of human-derived cultured tumor cells. […]

[2] = tested on: human alveolar epithelial cell carcinoma cell line (A549)
Description: as §1

[3] = tested on: human prostate cancer cell line (PC-3)
Description: CAKI2 cells were cultured and adjusted to cell count of about 5×10^3 cells per single well of 96-well plate. The amount of medium at this time was made to be 100 μL per well. Next, the 96-well plate was arranged in a CO2 incubator and incubated for about 1 day (21 hours to 24 hours) under conditions of 37° C. and 5% CO2. […] Cell viability (%) was determined in the manner described below. […] Following completion of incubation, cell viability (%) was evaluated using a colorimetric method consisting of recovering the cell culture liquid containing the above-mentioned reagent together with measuring absorbance at wavelength of 450 nm based on reduction of tetrazolium salt (value corrected for absorbance at a wavelength of 650 nm: A450 to A650). More specifically, the cell viability (%) of each test cell line was calculated from the measured absorbance as a relative value based on cell viability of 100% for the measured value (measured absorbance) of the comparison test group that underwent incubation for 48 hours as described above in only medium not containing peptide. Antitumor activity was evaluated for Sample 2 in above-mentioned Test Example 1 targeted at multiple types of human-derived cultured tumor cells. […]

For “FIGNLALSDLLAGVAYTANLLLKKRTLRKNDRKKR-NH2 [Sample 2]”, the “Cell Viability (%)” value ([1]; 12.5 μM) was 11%, the “Cell Viability (%)” value ([1]; 25 μM) was 0.6% and the “Cell Viability (%)” value ([2]; 12.5 μM) was 25.4%. The “Cell Viability (%)” value ([2]; 25 μM) was 1.4%, the “Cell Viability (%)” value ([3]; 12.5 μM) was 25.6% and the “Cell Viability (%)” value ([3]; 25 μM) was 2.5%.

— US11339203B2, “Antitumor peptide and use thereof” (TOAGOSEI CO., LTD., priority 2018, dated 2022)
